This note sets out measurements from a melting point compilation (Tetko et al.; mined from patent text by program, amines drawn as free bases though some values may be those of a salt).

Structures are written as SMILES.

By melting point is commonly meant the temperature, or range, at which the solid turns liquid. For the compound `CCCCCOCCOc1ccc(-c2ccc3c(c2)C=C(C(=O)Nc2ccc(CN(C)C4CCOCC4)cc2)CCS3(=O)=O)cc1`, the melting point was in the range of 188 to 189 °C.

`COc1ccc(NC(=O)c2cc([N+](=O)[O-])ccc2NC(=O)CF)c(C)c1` yielded a melting point of 237 to 239 °C.

In turn, `COc1ccnc2[nH]cc(C(C)=O)c12` yielded a melting point of over 210 °C.

Consider `Cc1cccc(N2CCN(c3nnc(Cl)c(C)c3C)CC2)c1C`, for which the melting point worked out at 194 °C.

Compound `CNCC(O)c1ccc(CO)cc1` (stereo unspecified) registered a melting point of 80 to 81 °C.

With `CCCCNC(=O)NS(=O)(=O)c1ccn(C)n1`, the melting point was 168 to 169 °C.

The compound `CN1CCN(CCCn2c(NC(=O)c3ccc(Cl)c(Cl)c3)nc3ccccc32)CC1` displayed a melting point of 166 to 168 °C.

In turn, `Cc1snc(O)c1C(N)=O` gave a melting point of 248 to 250 °C.

In the case of `O=C1Cc2cccc(OCc3ccccc3)c2N1`, the melting point was 140 to 142 °C.

On to `CCOC(=O)C(C)Oc1ccc(N(C)c2cc3ccccc3c(O)n2)cc1` (stereo unspecified), for which the melting point was 96 °C.

Turning to `COc1cc(C(=O)NN2CCN(C3CCCC3)CC2)ccc1Nc1ncc2c(n1)N(C1CCCCC1)CC(F)(F)C(=O)N2C`, the melting point fell in the range of 98 to 99 °C.

As for `Cc1cccc(C)c1-c1cc(C(N)=O)ccc1C(N)=O`, the melting point lay within 246 to 248 °C.

As to `O=C(c1ccccc1)c1ccc(O)c(Cl)c1`, the melting point is 180 °C.

As for `O=C(O)C(=O)c1c(F)c(F)c(OCCOc2ccc3ccccc3c2)c(F)c1F`, the melting point was in the range of 146 to 148 °C.

`CCOC(=O)COc1ccc(C(=O)c2cccs2)c2ccccc12`: the melting point was 79 °C.

In the case of `CCOC(=O)c1cc(=O)cc(C)o1`, the melting point is 35 to 38 °C.

As for `O=C(O)c1ccccc1Sc1ccccc1C(=O)O`, the melting point lay in the range of 226 to 227 °C.

For `NC1=NC(c2ccc(C(F)(F)F)cc2)Nc2cccc(F)c21` (stereo unspecified), the melting point lay in the range of 220 to 222 °C.

Regarding `CCOC(=O)CC12C(OS(=O)(=O)C(F)(F)F)=CC(C(C)CCCC(C)C)C1(C)CCC1=C2CCC2CC(OC(=O)c3ccccc3)CCC12C` (stereo unspecified), the melting point lay in the range of 132 to 134 °C.

As to `NS(=O)(=O)c1cccc(C(=O)C(F)(F)F)c1`, the melting point was in the range of 88.4 to 89.1 °C.

As to `CS(=O)(=O)OCCc1ccc(OCc2ccccc2)cc1`, the melting point lay in the range of 48 to 50 °C.

`N#CCCNC(=O)c1cccc(-c2cccc3nn(Cc4cccc(C(F)(F)F)c4)cc23)n1`: the melting point is 178 to 179 °C.

`COc1ccc(-c2cccc(C(=O)NO)c2C)cc1OCCCCCc1ccccc1` had a melting point of 125 to 126 °C.

In the case of `CC(C)(C)c1ccc(CCNc2ncnc3ccncc23)cc1`, the melting point fell in the range of 157 to 158 °C.

Compound `Cc1nc2c(Br)cccc2c(=O)n1C1CCC(=O)NC1=O` (stereo unspecified) came in with a melting point of 307 to 309 °C.

`Cn1ccnc1S(=O)c1ccccc1Cl` (stereo unspecified) displayed a melting point of 132 to 134 °C.

The compound `CCCc1c(OCCCOc2ccc(C(C)=O)c(OCC(=O)O)c2CCC)ccc(C(C)=O)c1O` displayed a melting point of 151 to 155 °C.

For `CCCN(CCN)CCNC(=O)c1nc(Cl)c(N)nc1N`, the melting point was 91 to 94 °C.

Compound `CC(=O)OC(c1ccccc1)C1C(=O)NC1S(C)(=O)=O` (mixture of isomers) yielded a melting point of 178 to 182 °C.

Regarding `O=C(O)c1cnccc1CCCOc1cccnc1Oc1cccc(Cl)c1`, the melting point was 142 to 144 °C.

Take `CC(c1oc2ccccc2c(=O)c1-c1cccc(F)c1)n1nc(-c2ccc(N)cc2)c2c(N)ncnc21` (stereo unspecified): the melting point was in the range of 91 to 94 °C.

Take `O=C1C(c2cccc(Br)c2)n2cncc2CN1Cc1ccncc1` (stereo unspecified): the melting point lay within 50 to 54 °C.

With `COc1ccc2c(c1)C(=NN)Cc1c(C#N)cccc1S2`, the melting point was in the range of 186 to 187 °C.

In turn, `COc1cc(C=C2CCCOC2CN)c([N+](=O)[O-])cc1OC` (stereo unspecified) came in with a melting point of 89 to 96 °C.

As to `O=C(O)c1cc(OCc2ccccc2)cc([N+](=O)[O-])c1`, the melting point lay within 157 to 158 °C.

For the compound `CCCCCCC(O)CCCCCCCCCCC(=O)NCCCC` (stereo unspecified), the melting point was in the range of 100 to 102 °C.

`CCOc1ccc(C(=O)C#N)cc1` returned a melting point of 43 °C.

For the compound `O=C(NN=C(c1ccccc1)c1ccncc1)c1cccnc1`, the melting point worked out at 74 °C.

Turning to `COc1cc(N2CCNCC2)cc(OC)c1OC`, the melting point lay within 73 to 77 °C.

As for `O=C(O)c1nc2ccc(NCCCN3CCC(OC(c4ccccc4)c4ccccc4)CC3)nn2n1`, the melting point is 135 to 138 °C.

Compound `O=C(Nc1ccc(NCc2ccccc2)cc1)C(=O)N1CCC(Cc2ccc(F)cc2)CC1` had a melting point of 145 to 148 °C.

The compound `O=C(NC1CCCCC1)N1CCc2cc(S(=O)(=O)N3CC(c4ccccc4)NC3=O)ccc21` (stereo unspecified) gave a melting point of 273 to 275 °C.

On to `CCCOCCOc1ccc(-c2ccc3c(c2)C=C(C(=O)O)CCCN3CC(C)C)cc1`, for which the melting point lay within 142 to 144 °C.

`Cc1ccc2[nH]c3ccc(C)cc3c2c1` came in with a melting point of 218 to 221 °C.

As for `O=C1c2ccc(Cl)cc2CN2C(=NO)CCC12` (stereo unspecified), the melting point was in the range of 249 to 252 °C.

For the compound `COc1ccccc1C1CCC(=O)CC1(O)C(=O)O` (stereo unspecified), the melting point turned out to be 204 °C.

The compound `Cn1cnc(COc2nn3c(-c4ccccc4)nnc3cc2-c2ccco2)n1` gave a melting point of 257 to 259 °C.

As for `O=C(NCc1ccc(Br)cc1)Nc1cccc2[nH]ccc12`, the melting point is 198 °C.

The compound `CCN(CC)c1cc(C)nc(-c2ccncc2)n1` yielded a melting point of 205 to 208 °C.

In turn, `CC(C)(O)c1ccc(-c2cnc3[nH]c(=O)n(CC4CCOCC4)c3n2)cc1` yielded a melting point of 212 to 214 °C.

Turning to `FC(F)(F)c1cc(-c2ccc(Cl)c(Cl)c2)nc2c(-c3ccccn3)cnn12`, the melting point came to 188 °C.

With `Nc1nc2ccccc2c2c1nc(CCCOc1ccccc1)n2CCCNC(=O)c1ccc(Br)cc1`, the melting point was 186 to 187 °C.

In turn, `O=COCc1c(Cl)ccc2cc(Cl)cnc12` gave a melting point of 146 °C.

For `CC(C)C(NC(=O)OCc1csc(N2CCCC2)n1)C(=O)NC(Cc1ccccc1)CC(O)C(Cc1ccccc1)NC(=O)OCc1cncs1` (stereo unspecified), the melting point is 146 to 148 °C.

`COc1cc(CC(C#N)(C=O)C(OC)OC)cc(OC)c1OC` (stereo unspecified) gave a melting point of 118 to 122 °C.

`O=C(O)COCCc1ccccc1` yielded a melting point of 46 to 48 °C.

In turn, `CCOC(=O)COc1ccc(C(=O)Nc2ccccc2Sc2ccccc2-c2nnn[nH]2)cc1OC` displayed a melting point of 179 to 181 °C.

For `C=C(CN(C)C)C(O)c1ncc2c(c1O)COC2c1ccc(OC)cc1` (stereo unspecified), the melting point lay within 169 to 170 °C.

In the case of `O=CC1CCSc2[nH]c3ccccc3c21` (stereo unspecified), the melting point was 60 to 65 °C.

The compound `Cc1ccc(C(=O)c2ccc(CC(=O)O)n2C)c(Cl)c1` showed a melting point of 176 to 178 °C.

In turn, `CN1C(=O)CC[C@]2(C)c3ccc(-c4ccccc4Cl)cc3CC[C@@H]12` came in with a melting point of 111 to 120 °C.

On to `CC1=CC(c2ccccc2Cl)C(c2nnco2)=C(C)N1` (stereo unspecified), for which the melting point is 192 to 194 °C.

In turn, `O=C(C=Cc1ccc(O)cc1)C=Cc1ccc(O)cc1` displayed a melting point of 236 °C.

In turn, `CCOC(=O)C(C)(C)Oc1ccc(C(=O)c2ccccc2)cc1` returned a melting point of 82 to 85 °C.

Take `CC(=O)Nc1cc(C(C)(C)C)[nH]n1`: the melting point is 194 to 195 °C.

`CCOC(=O)c1csc(C)c1S(=O)(=O)NC(=O)n1nc(OC)n(C)c1=O` gave a melting point of 176 °C.

On to `CCn1ncc2nc(C(=O)N3CCN(C)CC3)c(-c3ccccc3)nc21`, for which the melting point was in the range of 170 to 171 °C.

Compound `CN(C)CCNC(=O)NCc1ccc2c(c1)-c1[nH]nc(-c3ccsc3)c1C2` came in with a melting point of 247 to 249 °C.

In the case of `Cc1cc2c3c(cccc3c1Br)C(=O)N(O)C2=O`, the melting point lay in the range of 255 to 257 °C.

`CN(Cc1ccccc1)c1ncnc2c(N3CCOCC3)nc(N3CCC(N(C)C)CC3)nc12` had a melting point of 98 °C.

In turn, `CN1CCN(c2ccc(-c3nc4c(N[C@H]5[C@@H](C(N)=O)[C@@H]6C=C[C@H]5C6)ccnc4[nH]3)cc2)CC1` returned a melting point of 220 to 222 °C.

The compound `CCOC(=O)C(=CNc1ncccc1C)C(=O)OCC` had a melting point of 65 to 67 °C.

Compound `N#CNC(=N)CCN1CCOC1=O` registered a melting point of 137 to 139 °C.

Regarding `CN[C@@H]1COc2ccc(Cl)c(-c3ccccc3Cl)c2O1`, the melting point stood at 105 °C.

`Cc1nc(-n2cc(-c3ccccn3)nn2)sc1C(=O)NCc1ccccc1` returned a melting point of 184 to 187 °C.

As to `OC1(c2cccn2Cc2ccccc2F)CCN(CCc2ccc(Cl)cc2)CC1`, the melting point lay within 108 to 109 °C.

`CCOC(=O)c1nc2c(=O)[nH]c3cc(C(F)(F)F)ccc3n2c1CN1CCN(C)CC1` registered a melting point of 255 °C.

On to `BrCc1cccc(OCc2ccccc2)c1`, for which the melting point fell in the range of 38 to 40 °C.

`N#CNC(=NCCN1CCC(C(=O)c2ccc(F)cc2)CC1)Oc1ccccc1` came in with a melting point of 134 to 136 °C.

The compound `COc1cc(CC2COC(c3ccc(O)c(OC)c3)C2CO)ccc1O` (stereo unspecified) registered a melting point of 169 to 171 °C.

Compound `O=C(Nc1ccccc1)c1cc(Oc2ccc(C(F)(F)F)cc2Cl)ccc1[N+](=O)[O-]` gave a melting point of 190 to 194 °C.

`CCCCn1c(=O)c2cc(C(=O)O)cn2c2cc(Cl)ccc21` returned a melting point of 275 to 276 °C.

Compound `OCC=Cc1cccc(-c2nnn[nH]2)c1` showed a melting point of 174 °C.

In turn, `Nc1cc(-c2ccccc2)nc2ccccc12` had a melting point of 162 to 164 °C.

Take `CC(C)(C)OC(=O)Nc1cc(N2CCC(OC3CCCCO3)C2)c(-c2ccc(F)cc2)cc1NC(=O)CC(=O)c1cccc(-n2ccnc2)c1` (stereo unspecified): the melting point is 99 to 103 °C.

Turning to `CCC(C)CNNC(=O)c1cc(N)cc(C(=O)NNCC(C)CC)c1` (stereo unspecified), the melting point is 162 to 163 °C.

Take `CSC(C(=O)O)c1ccsc1` (stereo unspecified): the melting point was in the range of 73.5 to 74 °C.

With `CON(C)C(=O)Nc1ccc(OCCc2ccc(C)cc2)cc1`, the melting point was 82 to 83 °C.

`COc1ccc(-c2ccnc3c(C(N)=O)ncn23)cc1` registered a melting point of 246 to 249 °C.

`O=C(O)c1ncccc1CCc1cccc(F)c1` showed a melting point of 118 to 122 °C.

`O=C(Nc1ccc(OCCCCl)c2ccccc12)c1cc(F)cc(N2CCCCC2)c1` yielded a melting point of 181 to 182 °C.
